EC50 and IC90 data for 14 compounds are collected here from patent US20240228488A1 (TAKEDA PHARMACEUTICAL COMPANY LIMITED, priority 2021, published 2024).

In test [1] the target is human activated kallikrein enzyme (Homo sapiens, UniProt P03952). Briefly: Plasma kallikrein inhibition, fluorogenic PFR-AMC substrate, 500 pM activated kallikrein format. The test is classed as biochemical. The note with it: 500 pM activated kallikrein, 300 uM PFR-AMC, 30 min preincubation, 10 min reaction; read-out: Primary Dose Response Assay: Average EC50. The gist of the method:
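Fluorescence (ex 380/em 460 nm) is read after 10 min of 300 uM PFR-AMC turnover by 500 pM enzyme at RT. Compounds sit with enzyme for 30 min beforehand. Buffer is Tris (pH 7.5) with EDTA, NaCl, PEG-400 and Triton X-100; EC50 values are banded.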

In test [2] the target is T1, plasma kallikrein (Homo sapiens, UniProt P03952).
T1 construct: from tissue
T1 sequence (P03952 391-638 limits assumed): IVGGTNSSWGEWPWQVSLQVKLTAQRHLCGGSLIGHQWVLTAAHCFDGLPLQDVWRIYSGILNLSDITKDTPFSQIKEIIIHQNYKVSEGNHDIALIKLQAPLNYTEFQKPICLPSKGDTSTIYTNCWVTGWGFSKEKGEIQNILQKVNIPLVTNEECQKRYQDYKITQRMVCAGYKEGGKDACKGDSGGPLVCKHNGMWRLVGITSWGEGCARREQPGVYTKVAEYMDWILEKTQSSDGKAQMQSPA
T1 sequence (P03952 20-390 partner limits assumed): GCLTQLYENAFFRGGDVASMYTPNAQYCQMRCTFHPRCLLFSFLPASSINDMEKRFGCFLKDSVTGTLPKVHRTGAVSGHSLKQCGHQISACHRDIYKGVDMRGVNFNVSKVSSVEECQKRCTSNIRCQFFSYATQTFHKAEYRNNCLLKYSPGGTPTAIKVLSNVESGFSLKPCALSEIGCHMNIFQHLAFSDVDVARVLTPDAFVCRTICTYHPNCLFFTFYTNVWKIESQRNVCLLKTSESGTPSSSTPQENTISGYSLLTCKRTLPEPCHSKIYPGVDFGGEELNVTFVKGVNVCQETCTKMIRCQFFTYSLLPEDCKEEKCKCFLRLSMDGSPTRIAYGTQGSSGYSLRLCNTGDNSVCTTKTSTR
The test is described as follows: Neat human plasma assay, FXIIa contact pathway-activated, PFR-AMC substrate. The test is classed as biochemical. The note with it: citrated human plasma 78% final, 10 nM human FXIIa, 100 μM PFR-AMC; read-out: Human Plasma Assay: IC90. The method in brief: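 Compound inhibition of plasma kallikrein measured as PFR-AMC (100 μM) cleavage rate over 5 min at room temperature in 78% citrated human plasma activated with 10 nM FXIIa (Tris pH 7.5 buffer). IC50/IC90 from 4-parameter fit of rate versus inhibitor concentration.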

Sequence of human activated kallikrein enzyme (P03952 391-638 limits assumed): as the sequence (P03952 391-638 limits assumed) above
Sequence of human activated kallikrein enzyme (P03952 20-390 partner limits assumed): as the sequence (P03952 20-390 partner limits assumed) above

For the compound `O=C1CN(c2cc(C3CC3)cn3cc(CNc4ccnc(NC(=O)[C@H]5C[C@@H]5c5cc(Cl)ccn5)n4)nc23)C(=O)N1` (racemic) [Example 521, rac-(1S*,2S*)-2-(4-chloropyridin-2-yl)-N-(4-(((6-cyclopropyl-8-(2,4-dioxoimidazolidin-1-yl)imidazo[1,2-a]pyridin-2-yl)methyl)amino)pyrimidin-2-yl)cyclopropane-1-carboxamide], the concentration giving a half-maximal response (EC50) – broadly, the concentration needed to bring the measured effect to its halfway point – in test [1] was under 1 nM. In addition, in test [2], the IC90 (in general, the point of the concentration-response curve where the effect stands at 90%) lay in the range of 400 to 1500 nM.
The corresponding values for `Cc1ccnc([C@H]2C[C@@H]2C(=O)Nc2nc(C3CC3)nc(N(C)Cc3cn4cc(C5CC5)cc(N5CC(=O)NC5=O)c4n3)n2)n1` (racemic) [Example 522, rac-(1S*,2S*)-N-(4-cyclopropyl-6-(((6-cyclopropyl-8-(2,4-dioxoimidazolidin-1-yl)imidazo[1,2-a]pyridin-2-yl)methyl)(methyl)amino)-1,3,5-triazin-2-yl)-2-(4-methylpyrimidin-2-yl)cyclopropane-1-carboxamide] are under 1 nM and 400 to 1500 nM.
In the same order, the values of `Cc1ccnc([C@H]2C[C@@H]2C(=O)Nc2nc(NCc3cn4cc(C5CC5)cc(N5CC(=O)N(C)C5=O)c4n3)nc(C3CC3)n2)n1` (racemic) [Example 523, rac-(1S*,2S*)-N-(4-cyclopropyl-6-(((6-cyclopropyl-8-(3-methyl-2,4-dioxoimidazolidin-1-yl)imidazo[1,2-a]pyridin-2-yl)methyl)amino)-1,3,5-triazin-2-yl)-2-(4-methylpyrimidin-2-yl)cyclopropane-1-carboxamide] are under 1 nM and under 400 nM.
With `Cc1ccnc([C@H]2C[C@@H]2C(=O)Nc2nc(C)nc(N(C)Cc3cn4cc(C5CC5)cc(N5CC(=O)NC5=O)c4n3)n2)n1` (racemic) [Example 524, rac-(1S*,2S*)-N-(4-(((6-cyclopropyl-8-(2,4-dioxoimidazolidin-1-yl)imidazo[1,2-a]pyridin-2-yl)methyl)(methyl)amino)-6-methyl-1,3,5-triazin-2-yl)-2-(4-methylpyrimidin-2-yl)cyclopropane-1-carboxamide], the 50% effective concentration (EC50) in test [1] was under 1 nM. Moreover, in test [2], the IC90 lay in the range of 400 to 1500 nM.
The corresponding values for `Cc1ccnc([C@H]2C[C@@H]2C(=O)Nc2nc(C)nc(NCc3cn4cc(C5CC5)cc(N5CC(=O)N(C)C5=O)c4n3)n2)n1` (racemic) [Example 525, rac-(1S*,2S*)-N-(4-(((6-cyclopropyl-8-(3-methyl-2,4-dioxoimidazolidin-1-yl)imidazo[1,2-a]pyridin-2-yl)methyl)amino)-6-methyl-1,3,5-triazin-2-yl)-2-(4-methylpyrimidin-2-yl)cyclopropane-1-carboxamide] are under 1 nM and under 400 nM.
Turning to `Cc1ccnc([C@H]2C[C@@H]2C(=O)Nc2cncc(NCc3cn4cc(C5CC5)cc(N5CC(=O)N(C)C5=O)c4n3)n2)n1` (racemic) [Example 526, rac-(1S*,2S*)-N-(6-(((6-cyclopropyl-8-(3-methyl-2,4-dioxoimidazolidin-1-yl)imidazo[1,2-a]pyridin-2-yl)methyl)amino)pyrazin-2-yl)-2-(4-methylpyrimidin-2-yl)cyclopropane-1-carboxamide], the EC50 in test [1] is under 1 nM. The 90% effect concentration (IC90) in test [2] was in the range of 400 to 1500 nM.
For the compound `Cc1ccnc([C@H]2C[C@@H]2C(=O)Nc2nc(NCc3cn4cc(C5CC5)cc(N5CC(=O)N(C)C5=O)c4n3)cc(C3CC3)n2)n1` (racemic) [Example 539, rac-(1S*,2S*)—N-(4-cyclopropyl-6-(((6-cyclopropyl-8-(3-methyl-2,4-dioxoimidazolidin-1-yl)imidazo[1,2-a]pyridin-2-yl)methyl)amino)pyrimidin-2-yl)-2-(4-methylpyrimidin-2-yl)cyclopropane-1-carboxamide], the half-maximal effective concentration (EC50) in test [1] is under 1 nM. Besides, the IC90 in test [2] was 1500 to 10000 nM.
In the same order, the values of `Cc1ccnc([C@H]2C[C@@H]2C(=O)Nc2ncc(F)c(NCc3cn4cc(C5CC5)cc(N5CC(=O)N(CCO)C5=O)c4n3)n2)n1` (racemic) [Example 540, rac-(1S*,2S*)—N-(4-(((6-cyclopropyl-8-(3-(2-hydroxyethyl)-2,4-dioxoimidazolidin-1-yl)imidazo[1,2-a]pyridin-2-yl)methyl)amino)-5-fluoropyrimidin-2-yl)-2-(4-methylpyrimidin-2-yl)cyclopropane-1-carboxamide] are under 1 nM and under 400 nM.
`CN1C(=O)CN(c2cc(C3CC3)cn3cc(CNc4cc(NC(=O)[C@@H]5[C@@H](c6cccc(Cl)c6)C5(F)F)ncn4)nc23)C1=O` (racemic) [Example 543, rac-(1S*,3S*)-3-(3-chlorophenyl)-N-(6-(((6-cyclopropyl-8-(3-methyl-2,4-dioxoimidazolidin-1-yl)imidazo[1,2-a]pyridin-2-yl)methyl)amino)pyrimidin-4-yl)-2,2-difluorocyclopropane-1-carboxamide]: in test [1], the EC50 was 1 to 10 nM. Further, the concentration for an effect of 90% (IC90) in test [2] lay in the range of 1500 to 10000 nM.
The corresponding values for `Cc1ccnc([C@@]2(F)C[C@@H]2C(=O)Nc2cc(N[C@H](C)c3cn4cc(C5CC5)cc(N5CC(=O)N(C)C5=O)c4n3)nc(C)n2)n1` (racemic) [Example 546, rac-(1S*,2S*)—N-(6-(((R)-1-(6-cyclopropyl-8-(3-methyl-2,4-dioxoimidazolidin-1-yl)imidazo[1,2-a]pyridin-2-yl)ethyl)amino)-2-methylpyrimidin-4-yl)-2-fluoro-2-(4-methylpyrimidin-2-yl)cyclopropane-1-carboxamide] are under 1 nM and 400 to 1500 nM.
In the same order, the values of `COc1ccc(C#N)c([C@H]2C[C@@H]2C(=O)Nc2cc(OCc3cn4cc(C5CC5)cc(N5CC(=O)N(C)C5=O)c4n3)cnn2)c1` (racemic) [Example 559, rac-(1S*,2S*)-2-(2-cyano-5-methoxyphenyl)-N-(5-((6-cyclopropyl-8-(3-methyl-2,4-dioxoimidazolidin-1-yl)imidazo[1,2-a]pyridin-2-yl)methoxy)pyridazin-3-yl)cyclopropane-1-carboxamide] are 1 to 10 nM and 400 to 1500 nM.
The corresponding values for `N#CCCc1cc(C2CC2)cn2cc(COc3ccnc(NC(=O)[C@H]4C[C@@H]4c4cccc(Cl)c4)c3)nc12` (racemic) [Example 566, rac-(1S*,2S*)-2-(3-chlorophenyl)-N-(4-((8-(2-cyanoethyl)-6-cyclopropylimidazo[1,2-a]pyridin-2-yl)methoxy)pyridin-2-yl)cyclopropane-1-carboxamide] are 1 to 10 nM and 10000 to 48000 nM.
Turning to `O=C(Nc1cncc(NCc2cn3cc(C4CC4)ccc3n2)c1)[C@H]1C[C@@H]1c1cccc(Cl)c1` (racemic) [Example 574, rac-(1S*,2S*)-2-(3-chlorophenyl)-N-(5-(((6-cyclopropylimidazo[1,2-a]pyridin-2-yl)methyl)amino)pyridin-3-yl)cyclopropane-1-carboxamide], the 50% effective concentration (EC50) in test [1] was 1 to 10 nM. For the same compound, the IC90 in test [2] is 10000 to 48000 nM.
The corresponding values for `Cc1ccnc([C@H]2C[C@@H]2C(=O)Nc2cncc(NCc3cn4cc(C5CC5)cc(N5CC(=O)N(C)C5=O)c4n3)c2)n1` (racemic) [Example 575, rac-(1S*,2S*)-N-(5-(((6-cyclopropyl-8-(3-methyl-2,4-dioxoimidazolidin-1-yl)imidazo[1,2-a]pyridin-2-yl)methyl)amino)pyridin-3-yl)-2-(4-methylpyrimidin-2-yl)cyclopropane-1-carboxamide] are under 1 nM and under 400 nM.
